Results as given in article PMC7076669 (Pharmaceutics, 2020).
Converted amounts (≈) assume the structure as drawn. Read-outs that look alike come from different tables or passages of the source.

How the values were obtained:
[1] = cited from earlier work
[2] = Visual solubility of ibuprofen in liquid excipients; format: physicochemical; conditions: for Ibuprofen Solubility in Excipient: visual solubility
Procedure: In this method, the excipients were accurately weighed (2.5 g) in individually-labelled 20 mL scintillation vials. […] Further, the vials were placed in a shaking water bath (Fisher Scientific, Waltham, MA, USA) maintained at 25 °C for at least 15 min to allow proper mixing.

[3] = in MCT 70 (medium chain triglycerides), 25 °C
[4] = in oleyl alcohol (Kollicream OA), 25 °C
[5] = in propylene glycol (Kollicream PG), 25 °C

Ibuprofen solubility, Percentage ([2]; in Kolliphor PS 80, 25 °C): 18%
Ibuprofen Solubility in Excipient ([2]; in Kolliphor PS 80, 25 °C): 180 mg/g
Ibuprofen solubility, Percentage [2, 3]: 14%
Ibuprofen Solubility in Excipient [2, 3]: 140 mg/g
Ibuprofen solubility, Percentage ([2]; in PEG 400, 25 °C): 19%
Ibuprofen Solubility in Excipient ([2]; in PEG 400, 25 °C): 190 mg/g
Ibuprofen solubility, Percentage ([2]; in Transcutol, 25 °C): 30%
Ibuprofen Solubility in Excipient ([2]; in Transcutol, 25 °C): 300 mg/g
Ibuprofen solubility, Percentage ([2]; in glycerol, 25 °C): 0.4%
Ibuprofen Solubility in Excipient ([2]; in glycerol, 25 °C): 4 mg/g
Ibuprofen solubility, Percentage ([2]; in isopropyl myristate, 25 °C): 20%
Ibuprofen Solubility in Excipient ([2]; in isopropyl myristate, 25 °C): 200 mg/g
Ibuprofen solubility, Percentage ([2]; in mineral oil, 25 °C): 6%
Ibuprofen Solubility in Excipient ([2]; in mineral oil, 25 °C): 60 mg/g
Ibuprofen solubility, Percentage [2, 4]: 18%
Ibuprofen Solubility in Excipient [2, 4]: 180 mg/g
Ibuprofen solubility, Percentage [2, 5]: 30%
Ibuprofen Solubility in Excipient [2, 5]: 300 mg/g
Structure (SMILES): CC(C)Cc1ccc(C(C)C(=O)O)cc1 (stereo not drawn) [Ibuprofen, α-methyl-4-(2-methylpropyl) benzeneacetic acid]
aqueous solubility ([1]; pH 4.5): 0.084 mg/L (≈ 0.407 µM)
aqueous solubility ([1]; pH 5.54): 0.685 mg/L (≈ 3.32 µM)
